From PubChem BioAssay (NCI)
“And” between values parts separate entries of the source, which are not always exact repeats. Equal entries are not always repeated.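 Interpolation was linear, between the two tested concentrations surrounding the appropriate level; five concentrations were tested over 48 hours in 96-well plates. Here, GI50 denotes the concentration required for 50% inhibition of growth. Definition used: TGI = concentration required for complete inhibition of growth.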

What was measured:
Experiment in all cases: NCI tumour cell line growth inhibition, 48 h
[1] = system: SNB-78 CNS
[2] = system: NCI/ADR-RES ovarian
[3] = system: OVCAR-4 ovarian
[4] = system: NCI-H460 lung
[5] = system: IGROV1 ovarian
[6] = system: HCC-2998 colon
[7] = system: SK-MEL-5 melanoma
[8] = system: MCF7 breast
[9] = system: A498 renal
[10] = system: RXF-631 renal
[11] = system: M14 melanoma
[12] = system: KM12 colon
[13] = system: HCT-15 colon
[14] = system: LXFL 529 NSCLC
[15] = system: K-562 leukemia
[16] = system: P388 leukemia
[17] = system: TK-10 renal
[18] = system: SN12K1 renal
[19] = system: MOLT-4 leukemia
[20] = system: NCI-H23 lung
[21] = system: UACC-62 melanoma
[22] = system: UO-31 renal
[23] = system: HOP-62 NSCLC
[24] = system: SW-620 colon
[25] = system: SK-MEL-2 melanoma
[26] = system: BT-549 breast
[27] = system: PC-3 prostate
[28] = system: DMS 114 small cell lung
[29] = system: DMS 273 small cell lung
[30] = system: HT29 colon
[31] = system: NCI-H522 lung
[32] = system: OVCAR-3 ovarian
[33] = system: MDA-MB-435
[34] = system: SR leukemia
[35] = system: T-47D breast
[36] = system: SF-295 CNS
[37] = system: CAKI-1 renal
[38] = system: EKVX NSCLC
[39] = system: HL-60(TB) leukemia
[40] = system: HOP-18 NSCLC
[41] = system: SK-MEL-28 melanoma
[42] = system: COLO 205 colon
[43] = system: P388/ADR leukemia
[44] = system: U251 CNS
[45] = system: UACC-257 melanoma
[46] = system: DLD-1 colon
[47] = system: DU-145 prostate
[48] = system: OVCAR-8 ovarian
[49] = system: ACHN renal
[50] = system: SK-OV-3 ovarian
[51] = system: LOX IMVI melanoma
[52] = system: 786-0 renal

With `O=NN(CCCl)C(=O)NCCCl` the TGI [1] was 198 µM, the GI50 [2] was 61.7 µM and 266 µM and the TGI [2] was 156 µM and 234 µM and > 422 µM. The GI50 [3] was 42.7 µM and > 352 µM, the TGI [3] was 83.3 µM and 161 µM and > 398 µM and the GI50 [4] was 62.4 µM. The TGI [4] was 250 µM and 168 µM, the GI50 [5] was 55.9 µM and 196 µM and the TGI [5] was 176 µM and 150 µM and > 374 µM. The GI50 [6] was 63.5 µM and 260 µM, the TGI [6] was 161 µM and 201 µM and > 370 µM and the GI50 [7] was 95.6 µM and 362 µM. For the same molecule, the TGI [7] was 250 µM and 161 µM and > 500 µM, the GI50 [8] was 231 µM and the TGI [8] was 250 µM and 191 µM and > 312 µM. For the same molecule, the GI50 [9] was 178 µM, the TGI [9] was 250 µM and 221 µM and the TGI [10] was 203 µM. For the same molecule, the GI50 [11] was 215 µM, the TGI [11] was 234 µM and 158 µM and > 308 µM and the GI50 [12] was over 500 µM. For the same molecule, the TGI [12] was 250 µM and 194 µM and > 500 µM, the GI50 [13] was 52.7 µM and 121 µM and the TGI [13] was 127 µM and 150 µM and > 267 µM. For the same molecule, the TGI [14] was 141 µM, the TGI [15] was 44.6 µM and 206 µM and 280 µM and the TGI [16] was 40.9 µM. The GI50 [17] was 59.6 µM and > 279 µM, the TGI [17] was 144 µM and 173 µM and > 373 µM and the TGI [18] was 127 µM. The GI50 [19] was 39.3 µM and 110 µM, the TGI [19] was 151 µM and 161 µM and 320 µM and the GI50 [20] was over 272 µM. For the same molecule, the TGI [20] was 228 µM and 182 µM and > 367 µM, the GI50 [21] was 44.9 µM and > 151 µM and the TGI [21] was 169 µM and 91.9 µM and > 260 µM. For the same molecule, the GI50 [22] was 75.9 µM, the TGI [22] was 148 µM and 186 µM and 179 µM and the GI50 [23] was 64.3 µM and 281 µM. For the same molecule, the TGI [23] was 135 µM and 209 µM and > 389 µM, the GI50 [24] was 40.1 µM and 102 µM and the TGI [24] was 102 µM and 130 µM and 229 µM. The TGI [25] was 115 µM and 178 µM and > 500 µM, the GI50 [26] was 47.3 µM and 251 µM and the TGI [26] was 92.8 µM and 148 µM and > 300 µM. For the same molecule, the GI50 [27] was over 305 µM, the TGI [27] was 209 µM and > 390 µM and the TGI [28] was 142 µM. The TGI [29] was 157 µM, the GI50 [30] was 56.4 µM and 209 µM and the TGI [30] was 133 µM and 166 µM and > 361 µM. For the same molecule, the GI50 [31] was 47.7 µM and 102 µM, the TGI [31] was 107 µM and 113 µM and 179 µM and the GI50 [32] was 63.9 µM and > 295 µM. The TGI [32] was 152 µM and 159 µM and > 372 µM, the GI50 [33] was 50 µM and 331 µM and the TGI [33] was 127 µM and 147 µM and > 500 µM. The GI50 [34] was 38.5 µM, the TGI [34] was 122 µM and 97.7 µM and the GI50 [35] was 74.7 µM and 234 µM. The TGI [35] was 250 µM and 220 µM and > 331 µM, the GI50 [36] was 36.3 µM and 123 µM and the TGI [36] was 250 µM and 126 µM and > 380 µM. The GI50 [37] was 44.9 µM and 186 µM, the TGI [37] was 103 µM and 150 µM and > 278 µM and the GI50 [38] was 152 µM and > 268 µM. For the same molecule, the TGI [38] was 250 µM and 225 µM and > 326 µM, the GI50 [39] was 30.5 µM and 11.3 µM and the TGI [39] was 89.3 µM and 67.3 µM and 28.9 µM. The TGI [40] was 160 µM, the TGI [41] was 147 µM and 165 µM and the GI50 [42] was 47.2 µM and 202 µM. For the same molecule, the TGI [42] was 90.2 µM and 144 µM and > 286 µM, the TGI [43] was 48 µM and the GI50 [44] was 31.3 µM and 146 µM. The TGI [44] was 66.4 µM and 124 µM and > 306 µM, the GI50 [45] was over 258 µM and the TGI [45] was 238 µM and 159 µM and > 369 µM. For the same molecule, the TGI [46] was 176 µM, the GI50 [47] was 95 µM and 296 µM and the TGI [47] was 250 µM and 364 µM and > 377 µM. The GI50 [48] was 51.3 µM and > 320 µM, the TGI [48] was 164 µM and 197 µM and > 437 µM and the GI50 [49] was 64.4 µM. For the same molecule, the TGI [49] was 170 µM and 172 µM, the GI50 [50] was 226 µM and > 500 µM and the TGI [50] was 250 µM and 211 µM and > 500 µM. For the same molecule, the GI50 [51] was 29.5 µM and 170 µM, the TGI [51] was 67.4 µM and 124 µM and 362 µM and the GI50 [52] was 60 µM and 98.6 µM. The TGI [52] was 141 µM and 113 µM and > 263 µM.
